Values of other authors, collected in patent publication US20090202672A1, “AQUACULTURE FEED, PRODUCTS, AND METHODS COMPRISING BENEFICIAL FATTY ACIDS” (Monsanto Company, priority 2008, published 2009).

Assays:
[1] = system: established cell line from Atlantic salmon, Salmo salar; details: Ghioni et al 2004
[2] = system: cell line from turbot, Scopthalmus maximus; details: Ghioni et al 1999

SMILES: CC/C=C\C/C=C\C/C=C\C/C=C\CCCCC(=O)O [SDA, stearidonic acid]
- Bioconversion of SDA to EPA and DHA [1]: bioconversion of SDA to EPA, but not DHA
- Conversion of SDA to EPA [2]: limited conversion of SDA to EPA
